Test results published in patent US6369251B1, “Method for purification of polyprenyl compounds” (Nikken Chemicals Co., Ltd., priority 1999, dated 2002).

What was measured:
[1] = Determination of peroxide value by the British Pharmacopeia method (iodometric titration); format: physicochemical; settings: sample after recrystallization; about 1 g sample, titration with sodium thiosulfate
Method: The results of purities and determined peroxide values of (2E, 4E, 6E, 10E)-3,7,11,15-tetramethyl-2,4,6,10,14-hexadecapentaenoic acid obtained in Example 1 and Reference Example 3 are shown in Table 1.
The determination of the peroxide values was performed by the method described in the British Pharmacopeia. About 1 g of each sample was accurately weighed in a stoppered Erlenmeyer flask, and the sample was added with chloroform (15 mL) and dissolved. The solution was added with acetic acid (20 mL), and the mixture was shaken gently. Air in the flask was sufficiently substituted with argon atmosphere, and the mixture was added with 1 mL of saturated potassium iodide solution prepared just before use, and the mixture was left stand for 10 minutes in a dark place. Then, the mixture was added with 30 mL of water and shaken vigorously. The liberated iodine was titrated with […] sodium thiosulfate solution (indicator: 2 mL of the starch test solution). The titration was terminated when the purplish red color of the solution disappeared. Correction was made by performing a blank test in the same manner.
The peroxide value was calculated by using the following equation.
Peroxide value (meq/kg)=10f(a−b)/Sampled weight (g) a: Titration volume (mL) of 0.01 mol/L Na2S2O3 solution b: Titration volume (mL) of 0.01 mol/L Na2S2O3 solution in the blank test f: Factor of 0.01 mol/L Na2S2O3 solution

hepatic carcinoma = settings: known from literature; cited from earlier work

Compound	Peroxide value [1]	effect on recurrence of hepatic carcinoma (hepatic carcinoma)
CC(C)=CCC/C(C)=C/CC/C(C)=C/C=C/C(C)=C/C(=O)O [Example 1, (2E, 4E, 6E, 10E)-3,7,11,15-tetramethyl-2,4,6,10,14-hexadecapentaenoic acid]	0 meq/kg	–
CC(C)=CCC/C(C)=C/CC/C(C)=C/C=C/C(C)=C/C(=O)O [Reference Example 3, (2E, 4E, 6E, 10E)-3,7,11,15-tetramethyl-2,4,6,10,14-hexadecapentaenoic acid]	3.0 meq/kg	–
CC(C)=CCC/C(C)=C/CC/C(C)=C/C=C/C(C)=C/C(=O)O [(2E, 4E, 6E, 10E)-3,7,11,15-Tetramethyl-2,4,6,10,14-hexadecapentaenoic acid]	–	suppressing effect on recurrence of hepatic carcinoma
